Measured values: PMC11433764, “A Novel Compound from the Phenylsulfonylpiperazine Class: Evaluation of In Vitro Activity on Luminal Breast Cancer Cells” (Molecules, 2024)
Entries after “also recorded” stand apart in the source; their conditions may differ.

Tests used:
[1] = ABTS radical scavenging assay; conditions: 40 µM (greatest activity among 10, 20, 40, 80 and 160 µM)
Method: The ABTS^+ radical cation scavenging efficacy for compound 3 was determined according to the method described earlier with some modifications. Briefly, an equal amount of 7 mM ABTS^+ (2,20-azino-bis(3-ethylbenzothiazoline-6-sulfonic acid)) stock solution was mixed and kept in the dark at room temperature for 12 h with a 140 mM potassium persulfate stock solution. The ABTS^+ was then diluted in ethanol until it reached a UV absorption value of 0.700 (±0.200) at 734 nm. Compound 3 (10, 20, 40, 80 and 160 µM) was mixed with ABTS^+ in 96-well plates, and absorbance was read at 415 nm using a microplate reader (Thermo Plate TP-Reader, ThermoFisher Scientific, Waltham, MA, USA). The scavenging capability of ABTS^+ radical was expressed as Trolox (0.1 to 2 mM) equivalents.

[2] = system: ENTPD1; experiment: qPCR, ENTPD1 expression in MCF7; type: cell-based; conditions: vs untreated cells
Method: Total RNA was extracted using Trizol reagent (Invitrogen), according to the manufacturer’s protocol. The quality of extracted RNA was verified by the spectrophotometric readings at 260 and 280 nm (Nanodrop 1000-ThermoFisher), and the first strand of cDNA was synthesized from 1 µg of total RNA via reverse transcription using GoScript™ Reverse Transcription Mix (Promega, Madison, WI, EUA). qPCR analysis was performed using 5.0 μL of Power SYBR Green PCR Master Mix (Applied Biosystems, Carlsbad, CA, USA) and run on a StepOnePlus Systems (Applied Biosystems, Carlsbad, CA, USA) device with the following cycling parameters: 40 cycles of 95 °C for 10 s and 60 °C for 30 s. The comparative Cq was used to find the relative expression of CDH1 (E-caderina), ENTPD1 (ectonucleoside triphosphate diphosphohydrolase 1), ENTPD2 (ectonucleoside triphosphate diphosphohydrolase 2), ENTPD3 (ectonucleoside triphosphate diphosphohydrolase 3), ENTPD5 ([…]) and KRT10 (keratin 10) genes, after relative standard curve optimization. β-2-microglobulin (β2M) was used as a reference gene. The primer sequences are described in Table 3.

[3] = system: tumor cells MCF7, MDA-MB-453 and MDA-MB-231; experiment: MTT cell viability, tumor cells (stated collectively); type: cell-based; conditions: 48 h, MTT; tumor cells stated collectively
Method: Four different breast cells lines were used in this study: MCF-10A (non-tumorigenic), MCF7 (ER+ BC), MDA-MB453 (HER2+ BC) and MDA-MB231 (TNBC). All lineages were obtained from the American Type Culture Collection (ATCC; Manassas, VA, USA) and maintained at a temperature of 37 °C according to the supplier’s recommendations. Only MDA-MB231 cells were not kept in an atmosphere of 5% CO2. MCF-10A was grown in Dulbecco’s Modified Eagle’s Medium (DMEM F12, Gibco, ThermoFisher Scientific, Waltham, MA, USA) supplemented with 20 ng/mL epidermal growth factor (Gibco, ThermoFisher Scientific, Waltham, MA, USA), 0.5 μg/mL hydrocortisone (Sigma-Aldrich, Sigma-Aldrich, St. Louis, MO, USA) and 10 μg/mL insulin (Gibco, ThermoFisher Scientific, Waltham, MA, USA). MCF7 was cultivated in Roswell Park Memorial Institute Medium (RPMI-1640, Gibco, ThermoFisher Scientific, Waltham, MA, USA), MDA-MB453 in IMDM and MDA-MB231 in Leibovitz’s medium (L-15, Gibco, ThermoFisher Scientific, Waltham, MA, USA). All media were supplemented with 10% fetal bovine serum (FBS, Gibco, ThermoFisher Scientific, Waltham, MA, USA) and 50 µg/mL of gentamicin (Cultilab, Campinas, SP, Brazil). The cells were confirmed to be free of mycoplasma and passaged using a 0.25% trypsin-EDTA solution when confluency reached 80–90%.
Cell viability was determined by spectrophotometric quantification of MTT (3-[4,5-dimethyl-thiazol-2-yl]-2,5-diphenyltetrazolium bromide—Invitrogen. Waltham, MA, USA) reduction to formazan crystals. Cells were seeded at the density of 1 × 10^4 cells/well (MCF-10A, MDA-MB453), 1.5 × 10^4 cells/well (MDA-MB231) and 3 × 10^3 cells/well (MCF7) in 96-well culture dishes and incubated with different concentrations of the compounds (1.25, 2.5, 5, 10, 20, 40, 80 and 160 µM) for 48 h. The medium was than replaced by MTT solution (0.5 mg/mL) and plates were kept at 37 °C for 4 h. After the aspiration of the media, the formazan crystals were diluted with 100 μL of dimethyl-sulfoxide (DMSO)/well and the absorbance at 570 nm was measured using a spectrophotometer (Thermo Plate TP-Reader, Waltham, MA, USA). Cytotoxicity was calculated using the following formula: Cytotoxicity (%) = [absorbance of cells treated with the compounds/absorbance of cells treated with DMSO) × 100]. The IC50 was determined for each compound and was defined as the concentration required to inhibit 50% of cell growth, compared to the control sample (cells treated with DMSO 0.05%).
Data were presented as the mean ± standard deviation (SD) and analyzed using GraphPad Prism 9.0 software (GraphPad Software Inc., La Jolla, CA, USA). All data were assayed in triplicate. Statistical analysis was performed using one-way ANOVA, Tukey´s HSD post hoc test and Student’s t-test. The IC50 was calculated using non-linear regression and the selectivity index (SI) was calculated by the ratio between the IC50 values corresponding to the non-tumor cell lineage (MCF-10A) and the IC50 values corresponding to the BC cell lines. Statistical significance was accepted at p values < 0.05.

[4] = system: MCF7; experiment: Clonogenic (colony formation) assay; type: cell-based; conditions: MCF7, 9.00 µM (highest concentration), 48 h
Method: MCF7 cells were seeded at a density of 500 cells per well in 6-well culture. […] The medium was removed and, after 12 days, cells were washed 3 times with 1 × Phosphate-buffered saline (PBS), fixed with formaldehyde (4% v/v) and stained with crystal violet solution (0.5% v/v). Plates were scanned using L-Pix (Loccus Biotecnologia, Cotia, SP, Brazil) to obtain the images, incubated with 300 µL of acetic acid 33% v/v, and 100 µL of this solution was transferred to 96-well plates to evaluate the absorbance at 570 nm in a microplate reader (Thermo Plate TP-Reader, ThermoFisher). The number of colonies per well was calculated in relation to the untreated cells (considered as 100% of colony formation).

O=C(c1ccc(-n2cnnn2)cc1)N1CCN(S(=O)(=O)c2ccc(Cl)cc2)CC1 [Compound 3, (4-(1H-tetrazol-1-yl)phenyl)(4-((4-chlorophenyl)sulfonyl)piperazin-1-yl)methanone]
ABTS inhibition of free radicals [1]: 40%
Fold Change ENTPD1 mRNA ([2]; MCF7, 1.125 µM): 1.102
Fold Change ENTPD1 mRNA ([2]; MCF7, 2.25 µM): 1.331
Fold Change ENTPD1 mRNA ([2]; MCF7, 4.5 µM): 1.006
IC50 [3]: < 50 µM
Colony formation [4]: significantly reduced colony formation; also recorded: Colony formation was inhibited
